Measured values taken from PMC12498222 (RSC Advances, 2025).
Values joined by “and” are separate entries in the source; they are usually repeats but may differ in a detail not shown here. Identical values can stand only once. Like-named read-outs stand apart in the source and are kept apart here.

Legend:
MCF-7 [1] = experiment: cells; settings: Homo sapiens, MCF7, 24 h, read-out: In vitro cytotoxicity IC50 (mean ± SD) MCF-7
MCF-7 [2] = settings: for anti-proliferative activity category: MCF-7, in words; for IC50: human
EGFR TK enzyme = EGFR TK enzyme (Homo sapiens, UniProt P00533); experiment: biochemical; settings: EGFR IC50 (mean ± SD), ATP 1.65 μM, 30 min, room temperature
Chain of EGFR TK enzyme (P00533 25-1210): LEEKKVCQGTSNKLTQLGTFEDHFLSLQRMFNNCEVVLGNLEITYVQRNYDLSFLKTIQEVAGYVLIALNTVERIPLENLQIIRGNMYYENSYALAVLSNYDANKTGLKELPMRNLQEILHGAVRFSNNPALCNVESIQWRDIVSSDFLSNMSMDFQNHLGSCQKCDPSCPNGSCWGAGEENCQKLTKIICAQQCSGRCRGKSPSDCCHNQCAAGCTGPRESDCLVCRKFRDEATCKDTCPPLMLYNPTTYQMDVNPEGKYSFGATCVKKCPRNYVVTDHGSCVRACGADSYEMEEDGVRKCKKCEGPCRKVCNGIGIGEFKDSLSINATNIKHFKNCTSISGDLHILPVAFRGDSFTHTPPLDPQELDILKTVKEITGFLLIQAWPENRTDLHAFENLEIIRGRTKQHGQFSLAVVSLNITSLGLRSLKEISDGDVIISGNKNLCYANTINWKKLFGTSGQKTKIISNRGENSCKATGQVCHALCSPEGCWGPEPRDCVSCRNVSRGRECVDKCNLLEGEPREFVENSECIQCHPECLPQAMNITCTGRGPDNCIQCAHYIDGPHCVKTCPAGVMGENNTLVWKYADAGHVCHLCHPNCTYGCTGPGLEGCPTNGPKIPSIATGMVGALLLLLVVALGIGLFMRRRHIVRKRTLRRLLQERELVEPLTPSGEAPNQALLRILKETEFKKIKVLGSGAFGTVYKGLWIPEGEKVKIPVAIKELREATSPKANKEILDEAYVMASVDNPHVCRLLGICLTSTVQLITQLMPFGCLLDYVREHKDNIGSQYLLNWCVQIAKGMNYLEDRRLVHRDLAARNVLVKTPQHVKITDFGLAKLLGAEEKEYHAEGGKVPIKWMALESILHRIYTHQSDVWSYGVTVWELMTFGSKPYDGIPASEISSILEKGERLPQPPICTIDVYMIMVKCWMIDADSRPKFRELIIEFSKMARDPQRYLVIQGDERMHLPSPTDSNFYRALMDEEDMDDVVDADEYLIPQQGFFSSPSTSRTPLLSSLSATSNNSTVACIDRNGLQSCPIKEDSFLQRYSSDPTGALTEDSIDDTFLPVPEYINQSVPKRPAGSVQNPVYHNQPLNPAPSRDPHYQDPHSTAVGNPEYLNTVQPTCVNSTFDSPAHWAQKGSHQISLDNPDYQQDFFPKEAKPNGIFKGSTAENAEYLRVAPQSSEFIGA

| SMILES | IC50 (MCF-7 [1]) [µM] | anti-proliferative activity category (MCF-7 [2]) | IC50 (EGFR TK enzyme) | IC50 (MCF-7 [2]) [µM] |
| --- | --- | --- | --- | --- |
| Nc1cc(N2C(=O)c3ccccc3C2=O)nc(SCC(=O)NN=Cc2cccc([N+](=O)[O-])c2)n1 [6a, 2-((4-Amino-6-(1,3-dioxoisoindolin-2-yl)pyrimidin-2-yl)thio)-N′-(3-nitrobenzylidene)acetohydrazide] | 62 ± 3.3 | lowest anti-proliferative activity | – | – |
| Nc1cc(N2C(=O)c3ccccc3C2=O)nc(SCC(=O)NN=Cc2ccc([N+](=O)[O-])cc2)n1 [6b, 2-((4-Amino-6-(1,3-dioxoisoindolin-2-yl)pyrimidin-2-yl)thio)-N′-(4-nitrobenzylidene)acetohydrazide] | 48.4 ± 2.8 | moderate activity | – | – |
| Nc1cc(N2C(=O)c3ccccc3C2=O)nc(SCC(=O)NN=Cc2ccc(Cl)cc2)n1 [6c, 2-((4-Amino-6-(1,3-dioxoisoindolin-2-yl)pyrimidin-2-yl)thio)-N′-(4-chlorobenzylidene)acetohydrazide] | 37.7 ± 3.6 | moderate activity | 0.9 µM and 0.88 µM | 31.8 ± 2 |
| Nc1cc(N2C(=O)c3ccccc3C2=O)nc(SCC(=O)NN=Cc2ccc(O)cc2)n1 [6e, 2-((4-Amino-6-(1,3-dioxoisoindolin-2-yl)pyrimidin-2-yl)thio)-N′-(4-hydroxybenzylidene)acetohydrazide] | 75.4 ± 3.7 | lowest anti-proliferative activity | – | – |
| COc1ccc(C=NNC(=O)CSc2nc(N)cc(N3C(=O)c4ccccc4C3=O)n2)cc1OC [6g, 2-((4-Amino-6-(1,3-dioxoisoindolin-2-yl)pyrimidin-2-yl)thio)-N′-(3,4-dimethoxy-benzylidene)acetohydrazide] | 19.6 ± 1.5 | moderate activity | – | – |
| CNC(c1ccccc1)c1c(N)[nH]c(=O)[nH]c1=O (stereo not shown) [10a, 6-Amino-5-((methylamino)(phenyl)methyl)pyrimidine-2,4(1H,3H)-dione] | 8.6 ± 0.7 | – | 4.6 ± 0.11 µM | – |
| CCNC(c1ccccc1)c1c(N)[nH]c(=O)[nH]c1=O (stereo not shown) [10b, 6-Amino-5-((ethylamino)(phenyl)methyl)pyrimidine-2,4(1H,3H)-dione] | 31.8 ± 2 | moderate activity | 0.65 ± 0.02 µM | 37.7 ± 2.4 |
| CCCCNC(c1ccccc1)c1c(N)[nH]c(=O)[nH]c1=O (stereo not shown) [10c, 6-Amino-5-((butylamino)(phenyl)methyl)pyrimidine-2,4(1H,3H)-dione] | 7.6 ± 0.5 | high anti-proliferative activity | 0.99 ± 0.03 µM | – |
| CN(C)C(c1ccccc1)c1c(N)[nH]c(=O)[nH]c1=O (stereo not shown) [10d, 6-Amino-5-((dimethylamino)(phenyl)methyl)pyrimidine-2,4(1H,3H)-dione] | 8.6 ± 0.7 | high anti-proliferative activity | – | 14.2 ± 1.2 |
| O=C1CCC(N2C(=O)c3ccccc3C2=O)C(=O)N1 (stereo not shown) [Thalidomide, reference compound] | 13.4 ± 0.5 | – | – | – |
